Test results reported in US11220488B2, “Crystalline polymorph of Ponesimod” (TEVA PHARMACEUTICALS INTERNATIONAL GMBH, priority 2017, dated 2022).
In brackets after ≈: the same amount, converted by molar mass. Values belong to the compound of their own block, whether it stands above or below them.

Experiment: Solubility measurement by dissolution apparatus, Ponesimod content by liquid chromatography
Format: physicochemical
Description: The solubility for Ponesimod Form T1, according to this invention, Ponesimod Form A and Form C (described in PCT application WO 2010/046835) was measured by using Dissolution apparatus (Lab India DS8000) at 37° C. Buffers at pH. 1.2, 4.5 and 6.8 were prepared as per the USP 36 Solutions/Buffer Solutions 1209. About 200 mg of Ponesimod Form T1, 150 mg of Ponesimod Forms A and C were added to the 100 mL buffer (pH 1.2, 4.5 and 6.8) in individual flasks to obtain saturated suspension and the suspension was stirred with 250 rpm for 24 hours. Suspension was observed though out stirring period. Samples were drawn at different intervals on completion of 15 mins, 30 mins, 45 mins, 1 hrs, 2 hrs, 3 hrs, 4 hrs and 24 hrs from each flask and filtered through 0.45μ PTFE filter, each solution was analyzed for Ponesimod content by liquid chromatography.

- solubility at 45 min (pH 1.2 buffer (USP), 37 °C, pH 1.2, simulated gastric fluid, thermodynamic from solid, pH 1.2 buffer, 45 Min): 120 µg/mL (≈ 260 µM)
- solubility at 60 min (pH 1.2 buffer (USP), 37 °C, pH 1.2, simulated gastric fluid, thermodynamic from solid, pH 1.2 buffer, 60 Min): 120 µg/mL (≈ 260 µM)
- Solubility results at pH = 1.2 (pH 1.2 buffer, 37° C., 2 Hrs, listed as A): 0.11 mg/ml
- Solubility results at pH = 1.2 (pH 1.2 buffer, 37° C., 3 Hrs, listed as A): 0.11 mg/ml
- Solubility results at pH = 1.2 (pH 1.2 buffer, 37° C., 4 Hrs, listed as A): 0.11 mg/ml
- Solubility results at pH = 1.2 (pH 1.2 buffer, 37° C., 30 Min, listed as A): 0.13 mg/ml
SMILES: CCC/N=C1\S/C(=C\c2ccc(OC[C@H](O)CO)c(Cl)c2)C(=O)N1c1ccccc1C [Form A, (R)-5-[3-chloro-4-(2,3-dihydroxy-propoxy)-benz[Z]ylidene]-2-([Z]-propylimino)-3-o-tolyl-thiazolidin-4-one]

- Solubility results at pH = 1.2 (pH 1.2 buffer, 37° C., 2 Hrs, listed as C): 0.09 mg/ml
- Solubility results at pH = 1.2 (pH 1.2 buffer, 37° C., 3 Hrs, listed as C): 0.11 mg/ml
- Solubility results at pH = 1.2 (pH 1.2 buffer, 37° C., 4 Hrs, listed as C): 0.12 mg/ml
- Solubility results at pH = 1.2 (pH 1.2 buffer, 37° C., 15 Min, listed as C): 0.05 mg/ml
- Solubility results at pH = 1.2 (pH 1.2 buffer, 37° C., 24 Hrs, listed as C): 0.15 mg/ml
- Solubility results at pH = 1.2 (pH 1.2 buffer, 37° C., 30 Min, listed as C): 0.06 mg/ml
- Solubility results at pH = 1.2 (pH 1.2 buffer, 37° C., 45 Min, listed as C): 0.07 mg/ml
- Solubility results at pH = 1.2 (pH 1.2 buffer, 37° C., 60 Min, listed as C): 0.08 mg/ml
SMILES: CCC/N=C1\S/C(=C\c2ccc(OC[C@H](O)CO)c(Cl)c2)C(=O)N1c1ccccc1C [Form C, (R)-5-[3-chloro-4-(2,3-dihydroxy-propoxy)-benz[Z]ylidene]-2-([Z]-propylimino)-3-o-tolyl-thiazolidin-4-one]

- Solubility compared to other known crystalline polymorphs of Ponesimod (comparison in words): higher solubility
- Solubility results at pH = 1.2 (pH 1.2 buffer, 37° C., 2 Hrs, listed as T1): 0.24 mg/ml
- Solubility results at pH = 1.2 (pH 1.2 buffer, 37° C., 3 Hrs, listed as T1): 0.29 mg/ml
- Solubility results at pH = 1.2 (pH 1.2 buffer, 37° C., 4 Hrs, listed as T1): 0.31 mg/ml
- Solubility results at pH = 1.2 (pH 1.2 buffer, 37° C., 15 Min, listed as T1): 0.07 mg/ml
- Solubility results at pH = 1.2 (pH 1.2 buffer, 37° C., 24 Hrs, listed as T1): 0.40 mg/ml
- Solubility results at pH = 1.2 (pH 1.2 buffer, 37° C., 30 Min, listed as T1): 0.09 mg/ml
- Solubility results at pH = 1.2 (pH 1.2 buffer, 37° C., 45 Min, listed as T1): 0.12 mg/ml
- Solubility results at pH = 1.2 (pH 1.2 buffer, 37° C., 60 Min, listed as T1): 0.15 mg/ml
SMILES: CCC/N=C1\S/C(=C\c2ccc(OC[C@H](O)CO)c(Cl)c2)C(=O)N1c1ccccc1C [Form T1, (R)-5-[3-chloro-4-(2,3-dihydroxy-propoxy)-benz[Z]ylidene]-2-([Z]-propylimino)-3-o-tolyl-thiazolidin-4-one]

- Solubility at higher pH conditions (higher pH conditions (e.g. 4.5 and 6.8), 37° C.): not soluble
SMILES: CCC/N=C1\S/C(=C\c2ccc(OC[C@H](O)CO)c(Cl)c2)C(=O)N1c1ccccc1C [Ponesimod, (R)-5-[3-chloro-4-(2,3-dihydroxy-propoxy)-benz[Z]ylidene]-2-([Z]-propylimino)-3-o-tolyl-thiazolidin-4-one]
